The values that follow come from PMC5343495 (Scientific Reports, 2017).

For one data set, the system named is HEK293 cells. As to the kind of experiment: Luciferase-coupled ATP quantitative assay (CellTiter-Glo cytotoxicity). The format is cell-based. The conditions noted are these: incubation 24, 48 or 72 hours.
The test system of a further data set is washed platelets. Nature of the data set: Inhibition of thrombin-induced platelet aggregation (turbidimetric method). The format is cell-based, rabbits. The conditions noted are these: BBR 0.83, 2.50 and 7.50 μM, 5 min at 37 °C, 0.5 U/ml thrombin.
Data set [1] concerns the target T1, Thrombin from human plasma (Homo sapiens, UniProt P00734).
T1 construct: Thrombin, a multifunctional serine protease generated by prothrombin cleavage; purchased Sigma-Aldrich Chemical Co. (St. Louis, MO, USA) T6884; host or cells: human plasma
Nature of the data set: SPR competitive binding assay of BBR with argatroban (ABA method, Biacore S200). The conditions noted are these: 300 μM BBR; 30, 60 or 120 μM argatroban. Here is the method:
The response units were measured before the end of injection.

For data set [2], the target named is T2, thrombin (Homo sapiens, UniProt P00734).
T2 construct: Thrombin, a multifunctional serine protease generated by prothrombin cleavage; purchased AnaSpec, Inc., San Jose, CA
As to the kind of experiment: Thrombin inhibition assay (SensoLyte 520 FRET substrate kit). It counts as biochemical. The conditions noted are these: read-out: inhibition relative to the positive control.
Protocol: To evaluate the thrombin-inhibitory activity of the hits, a fluorescence assay utilizing a SensoLyte 520 Thrombin Activity Assay Kit (AnaSpec, Inc., San Jose, CA) was performed following the manufacturer’s instructions. This kit contained a novel 5-FAM/QXL 520 (fluorophore/quencher pair) FRET modified substrate (approximately 6 amino acids) that can be cleaved by thrombin at the Arg-Gly (R-G) site. The FRET substrate can be cleaved into two separate fragments, resulting in the release of 5-FAM fluorescence, which can be monitored at an excitation/emission = 490 nm/520 nm[37]. […]
Ten microlitres of compound solution (300 μM in assay buffer) and 40 μL thrombin solution (0.33 μg/ml in assay buffer) were sequentially added to each well of a black, flat- bottom, non-binding 96-well plate (Corning #3650, Corning, NY). […] After incubation, the fluorescence (excitation 490 nm, emission 520 nm) of each mixture was detected with a 2104 EnVision Multilabel Reader (PerkinElmer).
For enzymatic reaction, the thrombin solution treated with vehicle buffer alone was used as negative control. […] All fluorescence readings are taken into account in relative fluorescence units (RFU). The experimental data were analyzed by GraphPad Prism software (version 5, Graphpad Software Incorporation, USA).

For data set [3], the target named is T2, thrombin. Further details: method as in PMID 12646027, PMID 19674897, PMID 18674905, PMID 18289852, PMID 18052026. The conditions noted are these: training set for pharmacophore generation; cited from earlier work.
In data set [4] the target is T1, Thrombin from human plasma. As to the kind of experiment: SPR binding affinity measurement (Biacore T200, thrombin-immobilized CM5 chip).
Protocol: SPR binding studies were performed using a Biacore T200 biosensor system (GE Healthcare, Uppsala, Sweden).
Thrombin was diluted in 10 mM sodium acetate buffer at pH 5.0 and immobilized on a CM5 chip using an amine coupling kit. […] A total of 8419 RU of immobilized proteins was obtained. Sensor preparation and interaction analyses were performed at 25 °C in a PBS-P [10 mM phosphate buffer, 137 mM NaCl, 2.7 mM KCl, 0.05% P20 (pH 7.4)] running buffer containing 5% DMSO.
Solvent-correction procedures were included to compensate for any DMSO-related bulk refractive index variations. Reference flow cell without immobilized thrombin served as a non-specific binding control. Biacore traces were baseline subtracted and the signal was presented in sensorgrams and measured in RU. […] Equilibrium constants (KD) were calculated using the ‘affinity’ model in Biacore T200 evaluation software version 2.0.
Where [5] appears, read: Table 2, SPR, immobilized thrombin, read-out: KD.

pIC50, pKd: −log10 of the molar value. “Also recorded” adds a separate entry of the source. Like-named read-outs stand apart in the source and are kept apart here.

Protocol for HEK293 cells: HEK293 cells were seeded at 5.0 × 10^3 per well into 96-well clear-bottom black plates and incubated in 5% CO2 at 37 °C overnight. […] Luminescence was determined with an Envision 2100 multilabel reader to detect viability following incubation with CellTiter-Glo reagent for 15 min.
Protocol for washed platelets: PRP was obtained by centrifugation of collected blood at 190 g for 10 min. The platelets were isolated from PRP by centrifugation for 10 min at 650 g, resuspended and washed twice in Ca^2+-free Tyrode’s buffer (138 mM NaCl, 2.68 mM KCI, 11.9 mM NaHCO3, 0.36 mM NaH2PO4, 0.49 mM MgSO4, 5.5 mM glucose, pH7.5)[42]. Washed platelets were then resuspended in Tyrode’s buffer including 1.8 mM CaCl2 at a density of 2 × 10^7 platelets/ml.
Aggregation was initiated by the addition of 10 μL of thrombin (final concentrations of 0.5 U/ml). Aggregation was recorded at 37 °C for 5 min using a four-channel platelet aggregation analyser (LBY-NJ4, Beijing Precil Instrument Co., Ltd., China). Platelet aggregation inhibitory percentage was calculated using the following equation: Inhibitory percentage (%) = (1 − At/A0) × 100%. At is the platelet aggregation percentage of the test sample, and A0 is the platelet aggregation percentage of the control sample.

Take `COc1ccc2cc3[n+](cc2c1OC)CCc1cc2c(cc1-3)OCO2` [BBR, Berberine]: the cytotoxicity result in the data set on HEK293 cells is “no significant cytotoxicity; also recorded: without cytotoxicity”. Also, the “effect on thrombin-induced platelet aggregation” value in the data set with washed platelets is listed as “had the ability to inhibit thrombin-induced platelet aggregation; also recorded: significantly prevented platelet aggregation”. Also, the “competitive binding with argatroban to thrombin” value in data set [1] was “could bind to the same argartroban/thrombin interaction site”. On thrombin [2], the inhibition at 30 µM is at least 50%.

As to `NC1CCC(CNC(=O)C2CCCN2C(=O)C(N)C(c2ccccc2)c2ccccc2)CC1` (centres unmarked) [CHEMBL269744], the pIC50 at thrombin [3] was 10.00.

In data set [4], `O=C(O)c1cc(O)c(O)c(O)c1` [Gallic acid] gave a pKd of under 3.70.

For `O=C1c2ccccc2C(=O)c2c(O)c(O)cc(O)c21` [Hydroxyalizarin, reference compound], in data set [4] (setting [5]), the pKd is under 3.70.

On to `CC1(C)CCC[C@](C)([C@H]2CC[C@]3(C)[C@@H]2[C@H](O)C[C@@H]2[C@@]4(C)CC[C@H](O)C(C)(C)[C@@H]4[C@@H](O)C[C@]23C)O1` [Panaxatriol], for which the pKd in data set [4] (setting [5]) was under 3.70.
